# Data reported in the supplement of paper PMC13380429.
# Tests used:
# Details in all cases: 72 h
# Caco-2 [1] = experiment: cell viability relative to DMSO; higher = less toxic
# Calu-3 [2] = experiment: as above
# HepG2 [3] = experiment: as above
# U2OS [4] = experiment: as above
# Vero E6 [5] = experiment: as above
# Caco-2 [6] = experiment: relative viability EC50 (midpoint between 100% and the lowest measured viability); higher = less toxic
# HepG2 [7] = experiment: as above
# U2OS [8] = experiment: as above
# Vero E6 [9] = experiment: as above
# Caco-2 [10] = experiment: drug sensitivity score (DSS) for viability; higher = more toxic; extreme values may be limits of the assay
# Calu-3 [11] = experiment: as above
# HepG2 [12] = experiment: as above
# U2OS [13] = experiment: as above
# Vero E6 [14] = experiment: as above
# Calu-3 [15] = experiment: relative viability EC50 (midpoint between 100% and the lowest measured viability); higher = less toxic
SMILES,cell viability (Caco-2 [1]; 1 nM) [%],cell viability (Caco-2 [1]; 10 nM) [%],cell viability (Caco-2 [1]; 100 nM) [%],cell viability (Caco-2 [1]; 1000 nM) [%],cell viability (Caco-2 [1]; 10000 nM) [%],cell viability (Calu-3 [2]; 1 nM) [%],cell viability (Calu-3 [2]; 10 nM) [%],cell viability (Calu-3 [2]; 100 nM) [%],cell viability (Calu-3 [2]; 1000 nM) [%],cell viability (Calu-3 [2]; 10000 nM) [%],cell viability (HepG2 [3]; 1 nM) [%],cell viability (HepG2 [3]; 10 nM) [%],cell viability (HepG2 [3]; 100 nM) [%],cell viability (HepG2 [3]; 1000 nM) [%],cell viability (HepG2 [3]; 10000 nM) [%],cell viability (U2OS [4]; 1 nM) [%],cell viability (U2OS [4]; 10 nM) [%],cell viability (U2OS [4]; 100 nM) [%],cell viability (U2OS [4]; 1000 nM) [%],cell viability (U2OS [4]; 10000 nM) [%],cell viability (Vero E6 [5]; 1 nM) [%],cell viability (Vero E6 [5]; 10 nM) [%],cell viability (Vero E6 [5]; 100 nM) [%],cell viability (Vero E6 [5]; 1000 nM) [%],cell viability (Vero E6 [5]; 10000 nM) [%],relative viability EC50 (Caco-2 [6]) [µM],relative viability EC50 (HepG2 [7]) [µM],relative viability EC50 (U2OS [8]) [µM],relative viability EC50 (Vero E6 [9]) [µM],drug sensitivity score (Caco-2 [10]),drug sensitivity score (Calu-3 [11]),drug sensitivity score (HepG2 [12]),drug sensitivity score (U2OS [13]),drug sensitivity score (Vero E6 [14]),relative viability EC50 (Calu-3 [15]) [µM]
Cc1ccc(F)c(NC(=O)Nc2ccc(-c3cccc4[nH]nc(N)c34)cc2)c1 [linifanib],101,100,101,89.5,106,106,89.4,99.1,86.9,69.9,94.1,110,115,29.9,13.1,97.4,96.6,101,96.5,92.2,93.1,101,99.9,103,110,> 10,0.583,> 10,> 10,0,2.7,12.8,0,0,
COC(=O)N1CC[C@@H]2[C@H]1CCC[C@@]2(O)C#Cc1cccc(C)c1 [mavoglurant],110,120,100,98.4,108,,,,,,102,107,95.5,91.8,114,103,99.9,102,101,95.8,104,101,106,104,97.4,> 10,> 10,> 10,> 10,0,,0,0,0,
CN(C(=O)CN(CCO)CC(=O)N(C)C(C)(C)Cc1ccccc1)C(C)(C)Cc1ccccc1 [oxethazaine],90.7,105,102,93.1,74.6,94.4,101,100,97.6,42.2,104,101,98.9,111,91.2,99.7,97.5,101,97.2,68.2,94.8,97.7,93.7,99.8,101,,> 10,,> 10,1.9,3.4,0,1.9,0,2.86
Cc1ccc(C(=O)Cn2c3c(sc2=N)CCCC3)cc1 [pifithrin-alpha],102,89.9,97.1,99.3,90.1,,,,,,106,97.3,101,100,99,96.6,97.5,92.9,94.4,93.5,98.9,97.2,100,98.9,96.1,> 10,> 10,> 10,> 10,0,,0,0,0,
Fc1ccc(C(OCCN2CCN(CCCc3ccccc3)CC2)c2ccc(F)cc2)cc1 [vanoxerine],103,93.2,99.9,93.1,50.3,102,94.6,102,98.9,81.2,102,102,102,104,11,106,102,103,102,72.4,107,104,104,97.1,35.3,,3.42,,2.82,3.8,0.6,4.6,1,3.9,> 10
CC(C)(C)S(=O)(=O)N[C@H]1CC[C@H](C(=O)Nc2ccc(C(F)(F)F)cn2)CC1 [velneperit],109,98.1,103,91.7,104,106,103,117,95.5,99.1,100,105,105,98.9,98,,,,,,94.4,104,98.4,101,94.5,> 10,> 10,,> 10,0,0,0,,0,> 10
